Columns and labels:
[1] = target: T1, cytochrome P450 2B4 (Oryctolagus cuniculus, UniProt P00178, H226Y); test: X-ray crystal structure; type: binding
T1 sequence (P00178 28-491 H226Y): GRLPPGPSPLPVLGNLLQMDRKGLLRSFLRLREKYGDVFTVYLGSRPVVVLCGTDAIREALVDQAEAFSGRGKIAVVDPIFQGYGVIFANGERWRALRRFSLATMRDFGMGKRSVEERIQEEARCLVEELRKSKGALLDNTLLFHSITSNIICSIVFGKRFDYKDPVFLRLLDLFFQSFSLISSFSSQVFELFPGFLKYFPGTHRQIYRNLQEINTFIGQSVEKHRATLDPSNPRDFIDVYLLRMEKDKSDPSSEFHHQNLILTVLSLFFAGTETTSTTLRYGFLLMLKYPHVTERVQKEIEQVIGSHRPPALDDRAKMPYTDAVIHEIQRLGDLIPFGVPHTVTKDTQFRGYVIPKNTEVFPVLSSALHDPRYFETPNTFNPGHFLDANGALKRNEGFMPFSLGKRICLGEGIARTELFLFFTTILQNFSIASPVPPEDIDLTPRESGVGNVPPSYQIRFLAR

[2] = target: T2, cytochrome P450 2B6 (Homo sapiens, UniProt P20813, K262R/Y226H); test: X-ray crystal structure; type: biochemical
T2 sequence (P20813 29-491 Y226H/K262R): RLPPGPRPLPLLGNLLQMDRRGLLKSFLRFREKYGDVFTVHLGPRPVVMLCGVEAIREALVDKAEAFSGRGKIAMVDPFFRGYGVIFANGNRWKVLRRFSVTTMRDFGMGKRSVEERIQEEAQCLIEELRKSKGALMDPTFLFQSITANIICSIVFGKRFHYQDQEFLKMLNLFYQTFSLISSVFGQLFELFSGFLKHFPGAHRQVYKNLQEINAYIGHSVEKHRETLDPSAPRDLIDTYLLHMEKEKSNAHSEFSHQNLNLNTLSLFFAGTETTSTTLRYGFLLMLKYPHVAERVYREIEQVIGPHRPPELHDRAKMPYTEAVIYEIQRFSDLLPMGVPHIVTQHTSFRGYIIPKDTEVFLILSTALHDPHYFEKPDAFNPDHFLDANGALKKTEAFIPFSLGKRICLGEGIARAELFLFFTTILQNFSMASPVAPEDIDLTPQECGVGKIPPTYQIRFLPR

## CCOC(=O)C1=C(COCCN)NC(C)=C(C(=O)OC)C1c1ccccc1Cl (centres unmarked) [amlodipine]
[1]
  Kd: 2.06 µM
[2]
  IC50: 1.6 µM
